# Experiments:
# [1] = test system: E. coli; settings: cited from earlier work; for toxicity of organic solvent to E. coli: literature reports [10, 16, 17, 25]
# [2] = test system: E. coli (Ec); assay: Growth (cell density) in tryptic soy broth supplemented with 4VP or CA; format: cell-based, Escherichia coli; settings: Ec and Ec PAD, 24 h, FIG. 1c, f
# Description: (§1) To test whether the PAD strains were able to convert CA to 4VP and evaluate their tolerance to different concentrations of substrate and product, growth experiments were performed in tryptic soy broth supplemented with 0.25 or 0.5 g/L of 4VP, or 1, 5 or 10 g/L of CA. This rich medium was used to provide all the organisms with glucose and amino acids for growth and cell maintenance and allow for continuous PAD protein production during the 4VP production process. The bacterial cell density was measured at the time of inoculation and after 24 h of incubation, and PAD expression was induced at the beginning of the cultivations.
# (§2) Cultivations were performed in 48-well flat bottom clear plates (Corning, USA) when an organic overlay was not added, in 48-well FlowerPlates (m2p, Germany) when an overlay was added to rich medium, and in 14 mL round-bottom plastic tubes for lignin liquors with an overlay. Seed cultures of all strains listed in Table 1 were started by inoculating cells from agar plates into tubes with 5 mL of tryptic soy broth and incubating at 30° C. with vigorous shaking for 12 h. For the experiments in the clear plates, inocula were prepared by mixing 1 mL of the seed cultures with 9 mL of fresh tryptic soy broth and incubated for 8 h. […] The optical density at 595 nm was measured using a DTX880 plate reader (Beckton-Coulter, USA).
# [3] = Distribution between aqueous phase and organic overlay in biphasic cultivations (HPLC); format: physicochemical
# Source text: One example is the extraction of 4VP from the aqueous phase with octanol in a continuous flow-bed reactor containing immobilized E. coli cells. […] Therefore, we compared the performance of octanol to other mid-chain fatty alcohols with slightly longer alkane chains, decanol and undecanol, when added as overlays to the cultivation media (20% of the aqueous phase volume). To obtain high product concentrations and identify any limitations to the amount of 4VP that can be extracted with the overlays, the four recombinant strains were incubated in the presence of 25 or 75 g/L of CA.
# The lignocellulose-derived CA was used to cultivate the 4VP producing strains. […] However, this culture system is not amenable for repeated sampling of aqueous and organic phases to quantify metabolites or for monitoring cell growth in the presence of overlays and dark lignin liquors. Therefore, the incubations in CA-rich liquors were performed in culture tubes in presence of an undecanol overlay, and the OD, CA and 4VP concentrations were measured at 0, 12 and 24 h after inoculation. […]
# CA and 4VP were quantified by HPLC in samples taken from the aqueous and organic phases of the cultivations or lignin liquors after diluting with water (aqueous samples) or pure acetonitrile (organic samples). […]
# [4] = test system: all tested organisms; assay: Growth (cell density) in tryptic soy broth supplemented with 4VP or CA; format: cell-based, E. coli, B. subtilis, C. glutamicum, B. amyloliquefaciens; settings: tryptic soy broth with 0.25 or 0.5 g/L 4VP, 24 h
# Description: as §1, §2
# [5] = test system: Cg and Cg phdA- strains; assay: as above; format: cell-based, Corynebacterium glutamicum; settings: 24 h, FIG. 1a, b
# Description: as §1, §2
# [6] = test system: all Bacillus species; assay: as above; format: cell-based, Bacillus subtilis, Bacillus amyloliquefaciens; settings: 24 h, FIG. 1g-i
# Description: as §1, §2
# [7] = test system: PAD enzyme; settings: literature reports [10, 16, 17, 25]; cited from earlier work
# [8] = test system: microbes; settings: literature report [3]; cited from earlier work
structure (smiles),measurement,setting,value
"C=Cc1ccc(O)cc1 [4VP, 4-vinylphenol]",toxicity to E. coli relative to CA,[1]; literature report [12],significantly more toxic to E. coli than CA
same,4VP concentration displaying growth inhibition,[2],0.25 g/L
same,share of product extracted in the organic phase,"[3]; undecanol overlay, lignin liquors from corn stover residue",97%
same,toxicity of 4VP,[4],very toxic
"O=C(O)/C=C/c1ccc(O)cc1 [CA, p-coumaric acid]",CA concentration in the presence of which strains are able to grow (tolerance),[5],up to 10 g/L
same,share of CA not consumed found in the aqueous phase,"[3]; octanol, decanol or undecanol overlay (20% of aqueous volume), tryptic soy broth with 25 or 75 g/L CA",more than 90%
same,CA concentration above which strains are unable to grow,[6],more than 1 g/L
CCCCCCCCO [octanol],effect of organic solvent on PAD enzyme activity,[7],inhibition
same,toxicity of organic solvent to E. coli,[1],significant toxicity
same,toxicity of solvent to microbes,[8],significant toxicity
CCCCCC [hexane],effect of organic solvent on PAD enzyme activity,[7],inhibition
same,toxicity of organic solvent to E. coli,[1],significant toxicity

# — patent US20240102057A1, “METHODS AND COMPOSITIONS USEFUL FOR THE PRODUCTION OF 4-VINYLPHENOL” (THE REGENTS OF THE UNIVERSITY OF CALIFORNIA, priority 2022, published 2024)
